Data reported in patent US20160158245A1, “PHARMACEUTICAL FORMULATION CONTAINING THIENOTRIAZOLODIAZEPINE COMPOUNDS” (ONCOETHIX GmbH, priority 2013, published 2016).
pIC50: −log10 of the molar value.

Key:
Type in all cases: cell-based
BV-173 = assay: MTT assay; settings: Homo sapiens; BV-173, MTT at 72 h
Description: (§1) Different representative cell lines for ALL including Jurkat cells (T-ALL), RS 4-11 (MLL-AF4 B-precursor ALL), TO′M-1, BV173 (both Ph+ALL) and AML including K562 (Ph+CML in blast crisis,), HL-60 (NRAS driven AML2), NOMO1 (MLL-AF9 driven AML), KG1 (BMP-FGRF+AML6) and its more immature subtype KG1a were cultured in RPMI 1640 (Gibco Invitrogen, Basel, Switzerland) supplemented with 10% or 20% heat-inactivated fetal calf serum respectively, 2 mM L-glutamine, 100 IU/mL penicillin, and 100 µg/mL streptomycin.
(§2) MTT-assay: cells were seeded first into 24-well plates at the density of […] per well to avoid variations of concentrations in smaller volumes and treated with different doses of OTX015 prepared freshly from 1 mM stock solution in DMSO. Cells were transferred to 96-well plates for MTT-assay. Untreated cells and cells treated with equal amounts of DMSO (0.2-1%) used for dilution of OTX015 were used as controls. The 3-(4,5-dimethylthiazol-2-yl)-2,5-diphenyltetrazolium bromide (MTT) (Molecular Probes, Eugene, USA) was prepared as a stock of 5 mg/ml in PBS. 0.5 mg/mL of MTT solution was then added per well and incubated in the dark at 37° C. for 4 h. Cells were then lysed with 25% SDS lysis buffer and absorbance was read at 570 nm. Two independent experiments were run for each cell line. GI50 values were calculated with Prism v5 software (GraphPad Inc., La Jolla, USA).
(§3) AML and ALL cell lines were exposed to increasing concentrations of compound (1-1), (0.1 nM-10 μM). […] GI50 values were expressed as means from 3 independent experiments.

HL60 = assay: MTT assay; settings: Homo sapiens, HL-60, HL60, MTT at 72 h
Description: as §1, §2, §3

Jurkat = assay: MTT assay; settings: Homo sapiens, MTT at 72 h
Description: as §1, §2, §3

K562 = assay: MTT assay; settings: Homo sapiens, K562, 72 h, K562, MTT at 72 h
Description: as §1, §2, §3

KG1a = assay: MTT assay; settings: Homo sapiens, KG-1a, MTT at 72 h
Description: as §1, §2, §3

KG1 [1] = assay: MTT assay; settings: Homo sapiens, KG-1; KG1, MTT at 72 h
Description: as §1, §2, §3

NOMO1 = assay: MTT assay; settings: Homo sapiens, NOMO-1; NOMO1, MTT at 72 h
Description: as §1, §2, §3

RS4-11 = assay: MTT assay; settings: Homo sapiens; RS4-11, MTT at 72 h
Description: as §1, §2, §3

TOM-1 = assay: MTT assay; settings: TOM-1, MTT at 72 h
Description: as §1, §2, §3

KG1 [2] = assay: Apoptosis assessment (annexin V/PI flow cytometry)
Description: a total of 1×10^6 cellsderived from patients or cell lines were resuspended in 1 mL culture medium and incubated with the indicated dosages of OTX015 prepared freshly from 1 mM stock solution in DMSO. Control cells were incubated with the corresponding amount of dimethyl sulfoxide (DMSO 0.2-1%) to exclude toxicity of the excipient. Apoptotic cells were detected by cytofluorometric analysis using a FACScan (Becton Dickinson, Mountain View, USA). Cells were stained with propidium iodide (PI; 5 μg/mL; Becton Dickinson) and concomitantly for 15 minutes at RT with annexin-V-FITC (Becton Dickinson) according to the manufacturer's instructions to determine outer membrane phosphatidyl serine exposure. Data were analyzed with the Flowjo (Tree Star Inc., Ashland, USA) flow cytometry software.

ALL and AML cell lines = assay: Cell cycle analysis (PI flow cytometry)
Description: For conventional cell-cycle analysis, 1×10^6 cells were harvested, washed in PBS, and fixed in 70% ice cold ethanol. Cells were incubated with 100 μg/mL RNAse (Sigma, Saint-Quentin Fallavier, France) and stained with PI (25 μg/mL, Becton Dickinson) followed by an incubation period of 30 minutes at 37° C. Subsequently, cell-cycle distribution was determined by cytofluorometric analysis. Data were analyzed with the Flowjo (Tree Star Inc., Ashland, USA) flow cytometry software.

c-MYC = assay: QT-PCR of c-MYC in leukemia cell lines; settings: all cell lines, 250 nM and 500 nM, 48 h
Description: The oncogene c-MYC is thought to be activated by BRD4 and is crucial for leukemia maintenance. […] We determined basal gene expression levels of c-MYC in different leukemia cell lines showing heterogeneous results without clear correlation to biologic effects of Compound (1-1) in regard to MTT, apoptosis or cell cycle effects (FIGS. 42A and 42B).
The total RNA obtained after extraction with TRIZOL (Invitrogen, Grand Island, USA) were titrated to 1 μg/uL and stored at −80° C. The complementary DNA (cDNA) was synthesized from 1 μg RNA. The RQ-PCR reactions (BRD2, BRD3, BRD4, c-MYC and ABL) were performed in a volume of 25 ul from a tenth of the cDNA (equivalent to 100 ng of RNA) on a thermocycler ABI7900HT in standard mode (1 cycle of 2 minutes at 50° C.-10 minutes at 95° C. followed by 50 cycles of 15 seconds at 95° C.-1 minute at 60° C.).

GI50 (HL60): 1310 nM
pIC50 (HL60; read-out: GI value): 5.89
GI50 (Jurkat): 250 nM
GI50 (K562): 11300 nM
GI50 (K562; mean of 3 independent experiments): 11300 nM
GI50 (RS4-11): 34.2 nM
Structure (SMILES): Cc1sc2c(c1C)C(c1ccc(Cl)cc1)=N[C@@H](CC(=O)Nc1ccc(O)cc1)c1nnc(C)n1-2 [Compound (1-1), 2-[(6S)-4-(4-chlorophenyl)-2,3,9-trimethyl-6H-thienol[3,2-f]-[1,2,4]triazolo[4,3-a][1,4]diazepin-6-yl]-N-(4-hydroxyphenyl)acetamide dihydrate]
GI50 (BV-173): 161 nM
GI50 (KG1a): 1340 nM
pIC50 (KG1a; read-out: GI value): 5.89
GI50 (KG1 [1]): 198 nM
GI50 (NOMO1): 229 nM
GI50 (TOM-1): 133 nM
induction of apoptosis at lower dose (KG1 [2]; KG1, 10 nM, 72 hours): induced apoptosis after prolonged incubation
apoptosis (KG1 [2]; KG1, 96 hours at 10 nM): > 90%
S phase fraction (ALL and AML cell lines; 48 h, AML and ALL cell lines): decreased S phase fraction in almost all cell lines
cell cycle arrest (ALL and AML cell lines; all cell lines): induced cell cycle arrest in all cell lines
c-MYC gene expression (c-MYC): c-MYC downregulation was observed in all cell lines
